In ChEMBL document CHEMBL5154741, “Antibacterial alkylguanidino ureas: Molecular simplification approach, searching for membrane-based MoA” (Eur J Med Chem, 2022) one finds MIC data, which are given here for 17 compounds.

Converted amounts (≈) assume the structure as drawn. Where only a bound is given, the exact number is not on record here.

What all share (assay type): functional
The subject of one test is Bacillus subtilis. The experiment in a line: Antibacterial activity against Bacillus subtilis ATCC 6633 assessed as bacterial growth inhibition incubated for 18 hrs by CLSI based micro-dilution broth method.
For the next test, the system named is Enterococcus faecalis. The test is described as follows: Antibacterial activity against Enterococcus faecalis ATCC 19433 assessed as bacterial growth inhibition incubated for 18 hrs by micro-dilution broth method. Background: Broth dilution looks for growth in wells or tubes with falling amounts of substance.
The subject of a further test is Streptococcus pyogenes. The experiment in a line: Antibacterial activity against Streptococcus pyogenes ATCC 12344 assessed as bacterial growth inhibition incubated for 18 hrs by micro-dilution broth method.
In the next test the test system is Staphylococcus aureus. The experiment in a line: Antibacterial activity against Staphylococcus aureus ATCC 25923 assessed as bacterial growth inhibition incubated for 18 hrs by micro-dilution broth method.
For a further test, the system named is Escherichia coli. The test is described as follows: Antibacterial activity against Escherichia coli CCUG assessed as bacterial growth inhibition incubated for 18 hrs by micro-dilution broth method.
Another test has as its system Klebsiella pneumoniae. The test is described as follows: Antibacterial activity against Klebsiella pneumoniae ATCC 13833 assessed as bacterial growth inhibition incubated for 18 hrs by micro-dilution broth method.
The next test concerns Acinetobacter baumannii. The test is described as follows: Antibacterial activity against Acinetobacter baumannii ATCC 17978 assessed as bacterial growth inhibition incubated for 18 hrs by micro-dilution broth method.
The next test concerns Pseudomonas aeruginosa. The experiment in a line: Antibacterial activity against Pseudomonas aeruginosa ATCC 27853 assessed as bacterial growth inhibition incubated for 18 hrs by micro-dilution broth method.

Broadly, the MIC is the lowest concentration found to suppress growth. With `CCCCCCN(CCCCCCNC(=N)NCC1CC1)C(=O)N(CCCCCCCCNC(=N)NCC1CC1)CCCCCCNC(=N)NCC1CC1`, the MIC in the test with Bacillus subtilis was 1 µg/mL (≈ 1.32 µM); with Enterococcus faecalis, 2 µg/mL (≈ 2.64 µM); in the test on Streptococcus pyogenes, 1 µg/mL (≈ 1.32 µM); in the test with Staphylococcus aureus, 2 µg/mL (≈ 2.64 µM); in the test with Escherichia coli, 4 µg/mL (≈ 5.28 µM); with Klebsiella pneumoniae, 8 µg/mL (≈ 10.6 µM). Further, the figures for the MIC in the test with Acinetobacter baumannii and with Pseudomonas aeruginosa were 32 µg/mL (≈ 42.2 µM) and 64 µg/mL (≈ 84.4 µM), respectively.

On to `CCCCCCN(CCCCCCCCNC(=N)NCC1CC1)C(=O)N(CCCCCCCCNC(=N)NCC1CC1)CCCCCCCCNC(=N)NCC1CC1`, for which the MIC is 2 µg/mL (≈ 2.46 µM) in the test with Bacillus subtilis; 1 µg/mL (≈ 1.23 µM) in the test on Enterococcus faecalis; 1 µg/mL (≈ 1.23 µM) in the test with Streptococcus pyogenes; 2 µg/mL (≈ 2.46 µM) in the test on Staphylococcus aureus; 4 µg/mL (≈ 4.91 µM) in the test with Escherichia coli; 8 µg/mL (≈ 9.82 µM) in the test on Klebsiella pneumoniae. In addition, the minimum inhibitory concentration (MIC) amounted to 8 µg/mL (≈ 9.82 µM) with Acinetobacter baumannii and 16 µg/mL (≈ 19.6 µM) with Pseudomonas aeruginosa.

Take `CCCCCCCCN(CCCCCCCC)C(=O)N(CCCCCCCC)CCCCCCCC`: the MIC with Bacillus subtilis, with Enterococcus faecalis, in the test with Streptococcus pyogenes, in the test with Staphylococcus aureus, in the test with Escherichia coli and in the test with Klebsiella pneumoniae was more than 128 µg/mL each time. Moreover, the MIC with Acinetobacter baumannii and in the test on Pseudomonas aeruginosa was more than 128 µg/mL each time.

Turning to `CCCCCCCCN(CCCCCCCCNC(=N)NCC1CC1)C(=O)N(CCCCCCCC)CCCCCCCCNC(=N)NCC1CC1.O=C(O)C(F)(F)F`, the MIC was 128 µg/mL with Bacillus subtilis; 32 µg/mL in the test on Enterococcus faecalis; 8 µg/mL in the test with Streptococcus pyogenes; more than 128 µg/mL in the test on Staphylococcus aureus; more than 128 µg/mL in the test on Escherichia coli; 128 µg/mL in the test with Klebsiella pneumoniae. Also, the MIC in the test with Acinetobacter baumannii and in the test with Pseudomonas aeruginosa was more than 128 µg/mL in each case.

In the case of `CCCCCCCCN(CCCCCCCC)C(=O)N(CCCCCCCCNC(=N)NCC1CC1)CCCCCCCCNC(=N)NCC1CC1.O=C(O)C(F)(F)F`, the MIC with Bacillus subtilis was 128 µg/mL; in the test with Enterococcus faecalis it was 128 µg/mL; in the test with Streptococcus pyogenes, 4 µg/mL; in the test with Staphylococcus aureus it was more than 128 µg/mL; in the test on Escherichia coli it was 128 µg/mL; in the test with Klebsiella pneumoniae, 64 µg/mL. For the same compound, the MIC was 128 µg/mL with Acinetobacter baumannii and more than 128 µg/mL in the test with Pseudomonas aeruginosa.

`N=C(N)NCCCCCCN(CCCCCCN)C(=O)N(CCCCCCN)CCCCCCNC(=N)N`: the MIC in the test on Bacillus subtilis was 32 µg/mL (≈ 59.2 µM); in the test on Enterococcus faecalis, more than 128 µg/mL; in the test with Streptococcus pyogenes it was 128 µg/mL (≈ 237 µM); in the test on Staphylococcus aureus it was 128 µg/mL (≈ 237 µM); with Escherichia coli, more than 128 µg/mL; with Klebsiella pneumoniae, more than 128 µg/mL. For the same compound, the MIC in the test on Acinetobacter baumannii and in the test with Pseudomonas aeruginosa was more than 128 µg/mL in each case.

For the compound `CCCCCCCCCC(=O)N[C@@H](Cc1c[nH]c2ccccc12)C(=O)N[C@H](CC(N)=O)C(=O)N[C@@H](CC(=O)O)C(=O)N[C@@H]1C(=O)NCC(=O)N[C@@H](CCCN)C(=O)N[C@@H](CC(=O)O)C(=O)N[C@H](C)C(=O)N[C@@H](CC(=O)O)C(=O)NCC(=O)N[C@H](CO)C(=O)N[C@@H]([C@H](C)CC(=O)O)C(=O)N[C@@H](CC(=O)c2ccccc2N)C(=O)O[C@@H]1C`, the MIC with Bacillus subtilis is 1 µg/mL (≈ 0.617 µM); with Enterococcus faecalis, 1 µg/mL (≈ 0.617 µM); in the test with Streptococcus pyogenes it was 0.5 µg/mL (≈ 0.309 µM); in the test with Staphylococcus aureus it was 0.12 µg/mL (≈ 0.074 µM).

Regarding `N=C(N)NCCCCCCCCN(CCCCCCCCNC(=N)N)C(=O)N(CCCCCCCCN)CCCCCCCCN`, the MIC with Bacillus subtilis worked out at 0.5 µg/mL (≈ 0.766 µM); with Enterococcus faecalis it was 8 µg/mL (≈ 12.2 µM); in the test on Streptococcus pyogenes it was 0.25 µg/mL (≈ 0.383 µM); with Staphylococcus aureus, 0.5 µg/mL (≈ 0.766 µM); in the test on Escherichia coli, 2 µg/mL (≈ 3.06 µM); in the test with Klebsiella pneumoniae, 16 µg/mL (≈ 24.5 µM). For the same compound, the minimal inhibitory concentration (MIC) is 16 µg/mL (≈ 24.5 µM) in the test with Acinetobacter baumannii and 32 µg/mL (≈ 49 µM) in the test with Pseudomonas aeruginosa.

As for `CNC(=O)N(CCCCCCCCNC(=N)NCC1CC1)CCCCCCCCNC(=N)NCC1CC1`, the MIC in the test on Bacillus subtilis was determined as 32 µg/mL (≈ 61.4 µM); in the test on Enterococcus faecalis it was 64 µg/mL (≈ 123 µM); in the test on Streptococcus pyogenes, 8 µg/mL (≈ 15.4 µM); in the test with Staphylococcus aureus it was 128 µg/mL (≈ 246 µM); with Escherichia coli, 128 µg/mL (≈ 246 µM); in the test with Klebsiella pneumoniae, 128 µg/mL (≈ 246 µM). Further, the MIC with Acinetobacter baumannii and in the test with Pseudomonas aeruginosa was more than 128 µg/mL throughout.

`N=C(NCCCCCCCCN(CCCCCCCCNC(=N)NCC1CC1)C(N)=O)NCC1CC1.O=C(O)C(F)(F)F`: the MIC in the test with Bacillus subtilis came to 8 µg/mL; in the test on Enterococcus faecalis, 16 µg/mL; in the test with Streptococcus pyogenes, 2 µg/mL; with Staphylococcus aureus, 16 µg/mL; in the test with Escherichia coli it was 32 µg/mL; with Klebsiella pneumoniae it was 32 µg/mL. The MIC in the test on Acinetobacter baumannii and with Pseudomonas aeruginosa was 128 µg/mL throughout.

With COLISTIN, the MIC with Escherichia coli worked out at 0.5 µg/mL; in the test on Klebsiella pneumoniae, 0.5 µg/mL; in the test with Acinetobacter baumannii it was 1 µg/mL; in the test on Pseudomonas aeruginosa it was 0.5 µg/mL.

Turning to `NCCCCCCCCN(CCCCCCCCN)C(=O)N(CCCCCCCCN)CCCCCCCCN`, the MIC with Bacillus subtilis stood at 4 µg/mL (≈ 7.03 µM); in the test on Enterococcus faecalis it was 16 µg/mL (≈ 28.1 µM); in the test with Streptococcus pyogenes, 4 µg/mL (≈ 7.03 µM); in the test with Staphylococcus aureus, 8 µg/mL (≈ 14.1 µM); with Escherichia coli, 32 µg/mL (≈ 56.2 µM); with Klebsiella pneumoniae, 16 µg/mL (≈ 28.1 µM). The values for the MIC in the test with Acinetobacter baumannii and with Pseudomonas aeruginosa were 16 µg/mL (≈ 28.1 µM) and 32 µg/mL (≈ 56.2 µM), respectively.

For the compound `CNC(=O)NCCCCCCCCNC(=N)NCC1CC1.O=C(O)C(F)(F)F`, the MIC in the test with Bacillus subtilis was found to be 64 µg/mL; in the test with Enterococcus faecalis, 64 µg/mL; with Streptococcus pyogenes, 128 µg/mL; in the test on Staphylococcus aureus it was 32 µg/mL; with Escherichia coli it was 128 µg/mL; with Klebsiella pneumoniae it was 128 µg/mL. Also, the MIC in the test with Acinetobacter baumannii and in the test with Pseudomonas aeruginosa was more than 128 µg/mL throughout.

On to `CCCCCCCCN(CCCCCCNC(=N)NCC1CC1)C(=O)N(CCCCCCCCNC(=N)NCC1CC1)CCCCCCCCNC(=N)NCC1CC1`, for which the MIC with Bacillus subtilis was 2 µg/mL (≈ 2.46 µM); in the test on Enterococcus faecalis, 2 µg/mL (≈ 2.46 µM); in the test with Streptococcus pyogenes, 1 µg/mL (≈ 1.23 µM); with Staphylococcus aureus, 1 µg/mL (≈ 1.23 µM); in the test on Escherichia coli it was 2 µg/mL (≈ 2.46 µM); in the test on Klebsiella pneumoniae it was 2 µg/mL (≈ 2.46 µM). Besides, the MIC in the test on Acinetobacter baumannii turned out to be 4 µg/mL (≈ 4.91 µM); in the test on Pseudomonas aeruginosa, 8 µg/mL (≈ 9.82 µM).

Take `N=C(NCCCCCCCCNC(=O)NCCCCCCCCNC(=N)NCC1CC1)NCC1CC1`: the MIC in the test with Bacillus subtilis was more than 128 µg/mL; in the test with Enterococcus faecalis, 64 µg/mL (≈ 126 µM); in the test with Streptococcus pyogenes it was 8 µg/mL (≈ 15.8 µM); in the test on Staphylococcus aureus, 128 µg/mL (≈ 253 µM); in the test on Escherichia coli, 64 µg/mL (≈ 126 µM); in the test with Klebsiella pneumoniae, more than 128 µg/mL. In addition, the MIC with Pseudomonas aeruginosa is more than 128 µg/mL.

On to `CN[C@H](CC(C)C)C(=O)N[C@H]1C(=O)N[C@@H](CC(N)=O)C(=O)N[C@H]2C(=O)N[C@H]3C(=O)N[C@H](C(=O)N[C@H](C(=O)O)c4cc(O)cc(O)c4-c4cc3ccc4O)[C@H](O)c3ccc(c(Cl)c3)Oc3cc2cc(c3O[C@@H]2O[C@H](CO)[C@@H](O)[C@H](O)[C@H]2O[C@H]2C[C@](C)(N)[C@H](O)[C@H](C)O2)Oc2ccc(cc2Cl)[C@H]1O` [VANCOMYCIN], for which the MIC was 0.5 µg/mL (≈ 0.345 µM) in the test on Bacillus subtilis, 1 µg/mL (≈ 0.69 µM) in the test on Enterococcus faecalis and 1 µg/mL (≈ 0.69 µM) with Streptococcus pyogenes.

Turning to `CCCCCCCCN(CCCCCCCC)C(=O)N(CCCCCCCC)CCCCCCCCNC(=N)NCC1CC1.O=C(O)C(F)(F)F`, the MIC in the test with Bacillus subtilis was 64 µg/mL; with Enterococcus faecalis, 128 µg/mL; in the test on Streptococcus pyogenes, 16 µg/mL; in the test on Staphylococcus aureus it was more than 128 µg/mL; in the test on Escherichia coli, more than 128 µg/mL; with Klebsiella pneumoniae it was more than 128 µg/mL. Besides, the MIC with Acinetobacter baumannii and with Pseudomonas aeruginosa was more than 128 µg/mL throughout.
